In the NIST ThermoML archive (doi:10.1021/je300557g):

Experiment: xn = mol fraction of the nth substance listed
Conditions: 101 kPa, Liquid; for mass density: Vibrating tube method

CCCC[n+]1ccccc1.F[B-](F)(F)F [1-butylpyridinium tetrafluoroborate] + CO
Conditions	kinematic viscosity, 293.15 K [m2/s]	kinematic viscosity, 303.15 K [m2/s]	kinematic viscosity, 313.15 K [m2/s]	kinematic viscosity, 323.15 K [m2/s]	mass density, 293.15 K [kg/m3]	mass density, 303.15 K [kg/m3]	mass density, 313.15 K [kg/m3]	mass density, 323.15 K [kg/m3]
x1 = 0.0478	1.08e-06	8.99e-07	7.44e-07	6.21e-07	878.25	869.29	860.54	852.41
x1 = 0.0959	1.55e-06	1.27e-06	1.03e-06	8.64e-07	940.74	931.43	923.47	916
x1 = 0.1952	2.79e-06	2.21e-06	1.75e-06	1.44e-06	1026.08	1017.92	1010.59	1003.55
x1 = 0.2938	4.62e-06	3.53e-06	2.73e-06	2.2e-06	1080.36	1072.63	1065.38	1058.43
x1 = 0.3916	7.4e-06	5.61e-06	4.29e-06	3.41e-06	1117.45	1109.94	1102.7	1095.78
x1 = 0.4921	1.19e-05	8.77e-06	6.56e-06	5.13e-06	1145.14	1137.76	1130.52	1123.61
x1 = 0.5949	2e-05	1.4e-05	1.03e-05	7.68e-06	1166.53	1159.2	1152.11	1145.11
x1 = 0.6989	3.26e-05	2.22e-05	1.56e-05	1.16e-05	1183.41	1176.16	1169.22	1162.18
x1 = 0.7972	5.32e-05	3.4e-05	2.31e-05	1.65e-05	1196.34	1189.23	1182.46	1175.36
x1 = 0.8478	7.2e-05	4.49e-05	2.97e-05	2.07e-05	1202.15	1195.1	1188.42	1181.32
x1 = 0.8978	9.63e-05	5.72e-05	3.68e-05	2.51e-05	1207.4	1200.46	1193.84	1186.75
x1 = 0.9471	0.00013	7.39e-05	4.61e-05	3.06e-05	1212.3	1205.38	1198.8	1191.71

CCCC[n+]1cccc(C)c1.F[B-](F)(F)F [1-butyl-3-methylpyridinium tetrafluoroborate] + CCO
Conditions	kinematic viscosity, 293.15 K [m2/s]	kinematic viscosity, 303.15 K [m2/s]	kinematic viscosity, 313.15 K [m2/s]	kinematic viscosity, 323.15 K [m2/s]	mass density, 293.15 K [kg/m3]	mass density, 303.15 K [kg/m3]	mass density, 313.15 K [kg/m3]	mass density, 323.15 K [kg/m3]
x1 = 0.0521	2.07e-06	1.68e-06	1.4e-06	1.18e-06	855.55	847.17	838.85	830.02
x1 = 0.0964	2.67e-06	2.12e-06	1.75e-06	1.47e-06	900.79	892.48	884.31	875.68
x1 = 0.1964	4.31e-06	3.36e-06	2.71e-06	2.24e-06	977.43	969.49	961.48	953.37
x1 = 0.321	6.84e-06	5.15e-06	4.19e-06	3.39e-06	1041.5	1033.92	1026.2	1018.52
x1 = 0.3936	9.28e-06	6.82e-06	5.54e-06	4.49e-06	1068.86	1061.42	1053.9	1046.35
x1 = 0.4941	1.44e-05	1.03e-05	8.05e-06	6.24e-06	1098.93	1091.66	1084.35	1076.96
x1 = 0.59	2.21e-05	1.5e-05	1.15e-05	8.86e-06	1121.77	1114.64	1107.46	1100.21
x1 = 0.691	3.66e-05	2.32e-05	1.76e-05	1.28e-05	1141.6	1134.58	1127.48	1120.38
x1 = 0.7952	6.13e-05	3.68e-05	2.61e-05	1.81e-05	1158.8	1151.88	1144.87	1137.9
x1 = 0.85	8.37e-05	4.86e-05	3.28e-05	2.23e-05	1166.81	1159.93	1152.99	1146.06
x1 = 0.8992	0.000111	6.25e-05	4.03e-05	2.67e-05	1173.47	1166.61	1159.75	1152.86
x1 = 0.9477	0.00015	8.29e-05	5.08e-05	3.29e-05	1179.57	1172.74	1165.95	1159.11
